7 compounds from ChEMBL document CHEMBL1201862, “PubChem BioAssay data set” (2004) can be followed below.

Holding throughout (experiment): DTP human tumour cell line panel, 48 h
Assay [1] concerns TK-10.
Assay [2] deals with HCT-116.
The subject of assay [3] is PC-3.
Assay [4] relates to NCI-H460.
The test system of assay [5] is SK-MEL-2.
For assay [6], the system named is SW-620.
The test system of assay [7] is HL-60.
The subject of assay [8] is SK-MEL-28.
Assay [9] relates to NCI-H23.
The subject of assay [10] is SK-OV-3.
Assay [11] concerns UACC-62.
Assay [12] deals with SNB-75.
Assay [13] deals with COLO 205.
The test system of assay [14] is T47D.
The test system of assay [15] is RXF 393.
Assay [16] relates to EKVX.
Assay [17] has as its system K562.
Assay [18] relates to MCF7.
The subject of assay [19] is DU-145.
Assay [20] has as its system NCI-H522.

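Growth conditions: 96-well plates. Treatment: test compound, 48 hours, 5 concentrations. Analysis: linear interpolation between bracketing concentrations; unreached endpoints set to highest concentration. At the GI50, growth is halved.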 Calls of active or inactive are those of the source. Cut-off read from the data, not from the text of the source: active = GI50 up to about 1.1 µM and inactive = higher.

The GI50 is the concentration that inhibits growth by half. As for `O=S(=O)(c1cccc(C(F)(F)F)c1)N1c2ccccc2-n2cccc2C1c1cccnc1` (stereo not given), the GI50 in assay [1] was > 53.8 µM (inactive); in assay [2] it was 18.8 µM (inactive); in assay [3] it was 10.7 µM (inactive); in assay [4], 22.9 µM (inactive); in [5], 17.7 µM (inactive); in [6], 16.5 µM (inactive). Also, the GI50 was 1.1 µM (active) in [7]; 29.4 µM (inactive) in assay [8]; 8.49 µM (inactive) in assay [9]; > 46.9 µM (inactive) in [10]; 13.9 µM (inactive) in assay [11]; 61.9 µM (inactive) in assay [12]. The GI50 is 16.5 µM (inactive) in assay [13]; 7.03 µM (inactive) in assay [14]; > 38.7 µM (inactive) in [15]; > 100 µM (inactive) in [16]; 9.12 µM (inactive) in assay [17]; 13.9 µM (inactive) in assay [18]. In addition, the values for the GI50 in assay [19] and in assay [20] were > 39.7 µM (inactive) and 15.4 µM (inactive), respectively.

For the compound `CC(=O)OCC1OC(n2c(N)c(C#N)c(-c3ccccc3)c(C#N)c2=S)C(OC(C)=O)C(OC(C)=O)C1OC(C)=O` (stereo not given), the GI50 in assay [1] was > 100 µM (inactive); in assay [2], > 100 µM (inactive); in [3] it was > 100 µM (inactive); in assay [4], > 79.8 µM (inactive); in assay [5], > 58.9 µM (inactive); in assay [6], > 100 µM (inactive). Besides, the GI50 was > 100 µM (inactive) in [7]; > 100 µM (inactive) in assay [8]; > 65.8 µM (inactive) in [9]; 54.2 µM (inactive) in [10]; > 61.8 µM (inactive) in assay [11]; 7.33 µM (inactive) in assay [12]. In addition, the GI50 in assay [13] is > 100 µM (inactive); in assay [14] it was > 81.1 µM (inactive); in [15], 23.2 µM (inactive); in assay [16] it was > 74.3 µM (inactive); in assay [17], > 100 µM (inactive); in [18], > 100 µM (inactive). Also, the results for the GI50 in assay [19] and in assay [20] were > 100 µM (inactive) and 13 µM (inactive), respectively.

For `CC(C)(C)CC(C)(C)N/C(N)=N/O`, the GI50 was > 48.5 µM (inactive) in assay [1]; 9.71 µM (inactive) in assay [2]; 15.1 µM (inactive) in assay [3]; > 83.2 µM (inactive) in [4]; > 100 µM (inactive) in assay [5]; > 100 µM (inactive) in assay [6]. Moreover, the GI50 is > 55.7 µM (inactive) in [7]; > 100 µM (inactive) in [8]; > 91 µM (inactive) in [9]; 24.1 µM (inactive) in [10]; > 100 µM (inactive) in [11]; > 86.5 µM (inactive) in assay [12]. Besides, the GI50 in [13] is > 100 µM (inactive); in [14] it was > 32.7 µM (inactive); in assay [15], > 100 µM (inactive); in assay [16], > 89.5 µM (inactive); in [17], 28.8 µM (inactive); in assay [18], 8.79 µM (inactive). The GI50 in assay [19] and in [20] was > 100 µM (inactive) in each case.

Regarding `O=c1[nH]nc(N/N=C\c2ccc(Cl)cc2)c2ccccc12`, the GI50 was 32.5 µM (inactive) in assay [1]; 28.2 µM (inactive) in [2]; 17.2 µM (inactive) in [3]; 20.3 µM (inactive) in assay [4]; 17.2 µM (inactive) in [5]; 17.5 µM (inactive) in [6]. The GI50 in assay [7] is > 100 µM (inactive); in [8], 23.3 µM (inactive); in assay [9], 23 µM (inactive); in [10] it was 18.5 µM (inactive); in [11], 20.5 µM (inactive); in assay [12], 22.6 µM (inactive). Also, the GI50 is 19.5 µM (inactive) in [13]; 25.7 µM (inactive) in [14]; 25.4 µM (inactive) in assay [15]; 31.3 µM (inactive) in [16]; 20.9 µM (inactive) in [17]; 22.4 µM (inactive) in assay [18]. Also, the GI50 is 21.9 µM (inactive) in assay [19] and 16.6 µM (inactive) in assay [20].

In the case of `O=c1oc2c(Cl)cc(Cl)cc2cc1-c1cn2c(n1)sc1ccccc12`, the GI50 in assay [1] was > 100 µM (inactive); in [2], 27.9 µM (inactive); in assay [3], 47.1 µM (inactive); in [4] it was > 100 µM (inactive); in assay [5], > 100 µM (inactive); in assay [6] it was 31.9 µM (inactive). Besides, the GI50 was 23.9 µM (inactive) in [7]; > 100 µM (inactive) in assay [8]; 95.5 µM (inactive) in [9]; > 100 µM (inactive) in [10]; 35.9 µM (inactive) in assay [11]; > 100 µM (inactive) in [12]. Besides, the GI50 in assay [13] is 90.4 µM (inactive); in [14], 49.8 µM (inactive); in assay [15], 31.2 µM (inactive); in [16], 65.8 µM (inactive); in assay [17], 20.2 µM (inactive); in assay [18], 44.1 µM (inactive). Further, the GI50 was 74 µM (inactive) in assay [19] and 30.1 µM (inactive) in assay [20].

As for `O=[N+]([O-])c1ccc(-n2nc3ccc4c(no[n+]4[O-])c3[n+]2[O-])c([N+](=O)[O-])c1`, the GI50 in [1] was 2.86 µM (inactive); in [2], 1.91 µM (inactive); in assay [3], 8 µM (inactive); in assay [4], 5.55 µM (inactive); in [5], 3.56 µM (inactive); in [6] it was 2.1 µM (inactive). Further, the GI50 in assay [7] is 1.95 µM (inactive); in assay [8], 2.51 µM (inactive); in assay [9], 2.19 µM (inactive); in assay [10], 9.51 µM (inactive); in assay [11], 2.73 µM (inactive); in [12], 8.81 µM (inactive). The GI50 in [13] was 1.54 µM (inactive); in assay [14] it was 2.49 µM (inactive); in assay [15], 3.27 µM (inactive); in [16], 12.2 µM (inactive); in assay [17], 2.14 µM (inactive); in assay [18], 1.9 µM (inactive). Moreover, the GI50 in [19] was 5.56 µM (inactive); in assay [20], 1.72 µM (inactive).

With `COc1ccc(-c2cc(=O)c3c(O)cc(O)cc3o2)cc1OC`, the GI50 is > 100 µM (inactive) in assay [1]; 28.2 µM (inactive) in [2]; 55.1 µM (inactive) in assay [3]; 44.7 µM (inactive) in assay [4]; > 100 µM (inactive) in [5]; > 100 µM (inactive) in assay [6]. Besides, the GI50 is 39.9 µM (inactive) in assay [7]; > 100 µM (inactive) in [8]; > 100 µM (inactive) in [9]; 47.4 µM (inactive) in assay [10]; 61.4 µM (inactive) in [11]; 4.69 µM (inactive) in [12]. In addition, the GI50 in [13] was > 100 µM (inactive); in assay [14], 71.9 µM (inactive); in assay [15], 46.3 µM (inactive); in assay [16], 83.8 µM (inactive); in [17], 92.7 µM (inactive); in assay [18], > 100 µM (inactive). Also, the GI50 in assay [19] is 57 µM (inactive); in assay [20] it was 16.7 µM (inactive).
